Holding throughout (experiment): relative viability (nuclei count vs DMSO), 5 days (fraction); higher = more cells survive
Compound in the experiment “XMD8-85 + Decitabine”: CN1CCN(CC1)C2=CC(=C(C=C2)NC3=NC=C4C(=N3)N(C5=CC=CC=C5C(=O)N4C)C)OC [XMD8-85] + Nc1ncn([C@H]2C[C@H](O)[C@@H](CO)O2)c(=O)n1 [Decitabine] (partner 2 µM)
The gist of the method: (§1)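 Cells from lung cancer lines were seeded into 1536-well plates and, one day later, dosed by pin tool. Treatments were either a single drug or a fixed dose of an anchor drug with five library-drug doses (not always all listed) in √10 steps. After 5 days, nuclei were stained in a one-step fixation (final 0.05% Triton X-100, 1% formaldehyde, 1 ug/ml Hoechst) and counted on 4× images, and relative viability is the treated-to-vehicle nuclei ratio, as the median of duplicate plates.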

Compound in the experiment “XMD8-85 + Vorinostat”: CN1CCN(CC1)C2=CC(=C(C=C2)NC3=NC=C4C(=N3)N(C5=CC=CC=C5C(=O)N4C)C)OC [XMD8-85] + O=C(CCCCCCC(=O)Nc1ccccc1)NO [Vorinostat] (partner 1 µM)
The gist of the method:
as §1

Compound in the experiment “4EGI-1 + Lapatinib”: O=C(O)C(Cc1ccccc1[N+](=O)[O-])=NNc1nc(-c2ccc(Cl)c(Cl)c2)cs1 (mixture of isomers) [4EGI-1] + CS(=O)(=O)CCNCc1ccc(-c2ccc3ncnc(Nc4ccc(OCc5cccc(F)c5)c(Cl)c4)c3c2)o1 [Lapatinib] (partner 2 µM)
Put shortly:
as §1

Compound in the experiment “4EGI-1 + Alpelisib”: O=C(O)C(Cc1ccccc1[N+](=O)[O-])=NNc1nc(-c2ccc(Cl)c(Cl)c2)cs1 (mixture of isomers) [4EGI-1] + Cc1nc(NC(=O)N2CCC[C@H]2C(N)=O)sc1-c1ccnc(C(C)(C)C(F)(F)F)c1 [Alpelisib] (partner 2 µM)
The gist of the method: as §1

Take PC-14: the relative viability in the experiment with XMD8-85 + Decitabine (first compound 0.08 µM) stood at 0.275; in the experiment with XMD8-85 + Decitabine (first compound 0.253 µM) it was 0.276; with XMD8-85 + Decitabine (first compound 0.8 µM), 0.223; with XMD8-85 + Decitabine (first compound 2.53 µM), 0.162; with XMD8-85 + Decitabine (first compound 8 µM), 0.133; in the experiment with XMD8-85 + Vorinostat (first compound 0.08 µM), 0.463. Further, the relative viability with XMD8-85 + Vorinostat (first compound 0.253 µM) worked out at 0.566; with XMD8-85 + Vorinostat (first compound 0.8 µM) it was 0.667; with XMD8-85 + Vorinostat (first compound 8 µM) it was 0.327; with 4EGI-1 + Lapatinib (first compound 0.5 µM), 0.355; with 4EGI-1 + Lapatinib (first compound 1.581 µM), 0.353; in the experiment with 4EGI-1 + Lapatinib (first compound 5 µM), 0.371. Further, the relative viability came to 0.296 with 4EGI-1 + Lapatinib (first compound 50 µM), 1.05 in the experiment with 4EGI-1 + Alpelisib (first compound 0.5 µM), 0.906 with 4EGI-1 + Alpelisib (first compound 5 µM) and 0.941 with 4EGI-1 + Alpelisib (first compound 50 µM).
For LXF-289, the relative viability in the experiment with XMD8-85 + Decitabine (first compound 0.08 µM) amounted to 0.409; with XMD8-85 + Decitabine (first compound 0.253 µM), 0.371; with XMD8-85 + Decitabine (first compound 0.8 µM), 0.369; with XMD8-85 + Decitabine (first compound 2.53 µM), 0.423; with XMD8-85 + Decitabine (first compound 8 µM), 0.352; with XMD8-85 + Vorinostat (first compound 0.08 µM), 0.749. The relative viability came to 0.893 with XMD8-85 + Vorinostat (first compound 0.253 µM); 0.781 with XMD8-85 + Vorinostat (first compound 0.8 µM); 0.875 with XMD8-85 + Vorinostat (first compound 2.53 µM); 0.795 in the experiment with XMD8-85 + Vorinostat (first compound 8 µM); 0.893 with 4EGI-1 + Lapatinib (first compound 0.5 µM); 0.912 with 4EGI-1 + Lapatinib (first compound 1.581 µM). In addition, the relative viability in the experiment with 4EGI-1 + Lapatinib (first compound 5 µM) is 0.893; in the experiment with 4EGI-1 + Lapatinib (first compound 15.81 µM) it was 0.763; with 4EGI-1 + Lapatinib (first compound 50 µM), 0.677; with 4EGI-1 + Alpelisib (first compound 0.5 µM), 1.17; in the experiment with 4EGI-1 + Alpelisib (first compound 1.581 µM), 1.01; with 4EGI-1 + Alpelisib (first compound 5 µM), 1.04. The figures for the relative viability with 4EGI-1 + Alpelisib (first compound 15.81 µM) and with 4EGI-1 + Alpelisib (first compound 50 µM) were 0.89 and 0.516, respectively.
Turning to NCI-H2009, the relative viability was determined as 0.42 in the experiment with XMD8-85 + Decitabine (first compound 0.08 µM); 0.371 in the experiment with XMD8-85 + Decitabine (first compound 0.253 µM); 0.414 with XMD8-85 + Decitabine (first compound 0.8 µM); 0.417 in the experiment with XMD8-85 + Decitabine (first compound 2.53 µM); 0.255 with XMD8-85 + Decitabine (first compound 8 µM); 0.716 in the experiment with XMD8-85 + Vorinostat (first compound 0.08 µM). Further, the relative viability came to 0.774 in the experiment with XMD8-85 + Vorinostat (first compound 0.253 µM); 0.621 with XMD8-85 + Vorinostat (first compound 2.53 µM); 1.06 with 4EGI-1 + Lapatinib (first compound 0.5 µM); 0.879 in the experiment with 4EGI-1 + Lapatinib (first compound 1.581 µM); 0.962 in the experiment with 4EGI-1 + Lapatinib (first compound 5 µM); 0.744 with 4EGI-1 + Lapatinib (first compound 15.81 µM). The relative viability with 4EGI-1 + Lapatinib (first compound 50 µM) was determined as 0.177; with 4EGI-1 + Alpelisib (first compound 0.5 µM) it was 1.16; in the experiment with 4EGI-1 + Alpelisib (first compound 1.581 µM), 1.14; with 4EGI-1 + Alpelisib (first compound 5 µM), 1.25; with 4EGI-1 + Alpelisib (first compound 15.81 µM) it was 1.07; with 4EGI-1 + Alpelisib (first compound 50 µM), 0.585.
As for SK-LU-1, the relative viability with XMD8-85 + Decitabine (first compound 0.08 µM) was found to be 0.607; with XMD8-85 + Decitabine (first compound 0.253 µM), 0.58; in the experiment with XMD8-85 + Decitabine (first compound 0.8 µM), 0.61; in the experiment with XMD8-85 + Decitabine (first compound 2.53 µM), 0.705; with XMD8-85 + Decitabine (first compound 8 µM), 0.549; with XMD8-85 + Vorinostat (first compound 0.8 µM), 0.92. In addition, the relative viability came out at 0.9 with XMD8-85 + Vorinostat (first compound 2.53 µM); 0.694 with XMD8-85 + Vorinostat (first compound 8 µM); 0.972 in the experiment with 4EGI-1 + Lapatinib (first compound 0.5 µM); 1.06 in the experiment with 4EGI-1 + Lapatinib (first compound 1.581 µM); 0.803 with 4EGI-1 + Lapatinib (first compound 5 µM); 0.698 with 4EGI-1 + Lapatinib (first compound 15.81 µM). Besides, the relative viability with 4EGI-1 + Lapatinib (first compound 50 µM) came out at 0.487; with 4EGI-1 + Alpelisib (first compound 0.5 µM) it was 1.23; in the experiment with 4EGI-1 + Alpelisib (first compound 1.581 µM), 1.01; with 4EGI-1 + Alpelisib (first compound 5 µM) it was 1.26; in the experiment with 4EGI-1 + Alpelisib (first compound 15.81 µM) it was 0.806; in the experiment with 4EGI-1 + Alpelisib (first compound 50 µM), 0.232.
NCI-H23: the relative viability in the experiment with XMD8-85 + Decitabine (first compound 0.08 µM) was found to be 0.306; with XMD8-85 + Decitabine (first compound 0.253 µM), 0.316; in the experiment with XMD8-85 + Decitabine (first compound 0.8 µM), 0.349; with XMD8-85 + Decitabine (first compound 2.53 µM) it was 0.32; with XMD8-85 + Decitabine (first compound 8 µM) it was 0.267; with XMD8-85 + Vorinostat (first compound 0.08 µM) it was 0.508. The relative viability with XMD8-85 + Vorinostat (first compound 0.253 µM) came out at 0.634; with XMD8-85 + Vorinostat (first compound 0.8 µM), 0.638; with XMD8-85 + Vorinostat (first compound 2.53 µM) it was 0.591; with XMD8-85 + Vorinostat (first compound 8 µM) it was 0.31; with 4EGI-1 + Lapatinib (first compound 0.5 µM), 1.24; with 4EGI-1 + Lapatinib (first compound 5 µM), 1.09. Moreover, the relative viability with 4EGI-1 + Lapatinib (first compound 15.81 µM) turned out to be 1.13; with 4EGI-1 + Lapatinib (first compound 50 µM), 0.43; with 4EGI-1 + Alpelisib (first compound 0.5 µM) it was 0.905; with 4EGI-1 + Alpelisib (first compound 5 µM), 0.915; with 4EGI-1 + Alpelisib (first compound 15.81 µM), 0.794; in the experiment with 4EGI-1 + Alpelisib (first compound 50 µM) it was 0.611.
Consider NCI-H2405, for which the relative viability amounted to 0.672 with XMD8-85 + Decitabine (first compound 0.08 µM); 0.765 in the experiment with XMD8-85 + Decitabine (first compound 0.253 µM); 0.705 in the experiment with XMD8-85 + Decitabine (first compound 0.8 µM); 0.854 with XMD8-85 + Decitabine (first compound 2.53 µM); 0.75 with XMD8-85 + Decitabine (first compound 8 µM); 0.993 with XMD8-85 + Vorinostat (first compound 0.08 µM). The relative viability in the experiment with XMD8-85 + Vorinostat (first compound 0.253 µM) worked out at 0.992; in the experiment with XMD8-85 + Vorinostat (first compound 0.8 µM) it was 1.08; with XMD8-85 + Vorinostat (first compound 2.53 µM), 1.06; with XMD8-85 + Vorinostat (first compound 8 µM), 0.549; in the experiment with 4EGI-1 + Lapatinib (first compound 0.5 µM), 1.27; with 4EGI-1 + Lapatinib (first compound 1.581 µM), 0.801. For the same cell line, the relative viability was 1.23 in the experiment with 4EGI-1 + Lapatinib (first compound 5 µM); 1.09 with 4EGI-1 + Lapatinib (first compound 15.81 µM); 0.685 with 4EGI-1 + Lapatinib (first compound 50 µM); 1.16 with 4EGI-1 + Alpelisib (first compound 0.5 µM); 0.664 with 4EGI-1 + Alpelisib (first compound 1.581 µM); 0.95 with 4EGI-1 + Alpelisib (first compound 5 µM). The relative viability with 4EGI-1 + Alpelisib (first compound 15.81 µM) was 0.918; with 4EGI-1 + Alpelisib (first compound 50 µM) it was 0.526.
Consider RERF-LC-KJ, for which the relative viability with XMD8-85 + Decitabine (first compound 0.253 µM) came to 0.703; with XMD8-85 + Decitabine (first compound 0.8 µM), 0.811; with XMD8-85 + Decitabine (first compound 2.53 µM), 0.767; with XMD8-85 + Decitabine (first compound 8 µM), 0.496; with XMD8-85 + Vorinostat (first compound 0.08 µM), 0.656; with XMD8-85 + Vorinostat (first compound 0.253 µM) it was 0.671. The relative viability was 0.849 in the experiment with XMD8-85 + Vorinostat (first compound 0.8 µM); 0.685 with XMD8-85 + Vorinostat (first compound 2.53 µM); 0.43 in the experiment with XMD8-85 + Vorinostat (first compound 8 µM); 0.93 in the experiment with 4EGI-1 + Lapatinib (first compound 0.5 µM); 0.677 in the experiment with 4EGI-1 + Lapatinib (first compound 1.581 µM); 0.808 with 4EGI-1 + Lapatinib (first compound 5 µM). For the same cell line, the relative viability with 4EGI-1 + Lapatinib (first compound 15.81 µM) came out at 0.64; in the experiment with 4EGI-1 + Lapatinib (first compound 50 µM), 0.644; in the experiment with 4EGI-1 + Alpelisib (first compound 0.5 µM), 0.924; in the experiment with 4EGI-1 + Alpelisib (first compound 5 µM), 0.728; with 4EGI-1 + Alpelisib (first compound 15.81 µM) it was 0.677; in the experiment with 4EGI-1 + Alpelisib (first compound 50 µM) it was 0.659.

These data come from the supplement of paper PMC10307832.
